Values of other authors as cited in paper PMC3983201, “6-Methoxyflavanones as Bitter Taste Receptor Blockers for hTAS2R39” (PLoS ONE, 2014).
Like-named read-outs stand apart in the source and are kept apart here.

Experiments:
hTAS2R31 = system: hTAS2R31; design: method as in PMID 22059530; conditions: cited from earlier work
bitter taste = system: bitter taste; design: method as in PMID 16028996; conditions: in-vivo sensory masking, unknown mechanism; cited from earlier work
hTAS2R39 = target: T1, hTAS2R39 (Homo sapiens, UniProt P59534); design: method as in PMID 24117141; conditions: cited from earlier work
T1 construct: first 45 amino acids of rat somatostatin receptor type 3 (sst3 membrane-targeting tag) (N); expressed in transfected cells; host or cells: HEK293 T-Rex Flp-In cells stably expressing Gα16-gust44; receptor in pcDNA5/FRT, induced with doxycycline
T1 sequence (P59534 1-338): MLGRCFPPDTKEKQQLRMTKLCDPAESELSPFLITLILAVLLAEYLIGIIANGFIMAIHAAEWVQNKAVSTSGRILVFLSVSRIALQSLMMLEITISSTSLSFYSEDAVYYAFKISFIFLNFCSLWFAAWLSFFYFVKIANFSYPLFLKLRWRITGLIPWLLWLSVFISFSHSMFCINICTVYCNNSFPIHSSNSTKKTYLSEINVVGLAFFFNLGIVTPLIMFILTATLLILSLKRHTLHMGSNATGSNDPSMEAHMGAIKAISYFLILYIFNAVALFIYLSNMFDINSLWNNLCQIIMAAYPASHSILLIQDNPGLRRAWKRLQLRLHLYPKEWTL

Structure (SMILES) | antagonism of hTAS2R31 (hTAS2R31) | reduction of the bitter taste of different chemical classes of bitter molecules (bitter taste) | activation of hTAS2R39 in a previous study (hTAS2R39) | antagonism of hTAS2R31 (hTAS2R31; listed as sakuranetin)
COc1cc2c(c(O)c1OC)C(=O)C[C@@H](c1ccc(O)cc1)O2 [6-methoxysakuranetin, reference compound] | antagonists for hTAS2R31 |  |  | 
COc1cc([C@@H]2CC(=O)c3c(O)cc(O)cc3O2)ccc1O [Compound 7, Homoeriodictyol] |  | up to 40% | a activated hTAS2R39 in a previous study [16], but was selected for testing as antagonist due to ability to reduce bitter taste perception in sensory tests [9]. | 
COc1cc(O)c2c(c1)O[C@H](c1ccc(O)cc1)CC2=O [Compound 14, Sakuranetin] | c reported as antagonist of hTAS2R31 [10]. |  |  | antagonists for hTAS2R31
